Results on 20 compounds are retold here after PubChem BioAssay (NCI).

Holding throughout (experiment): NCI-60 cell line screen, 48 h
The subject of assay [1] is A549 NSCLC.
Assay [2] relates to EKVX NSCLC.
The test system of assay [3] is HCT-15 colon.
The subject of assay [4] is K-562 leukemia.
Assay [5] has as its system NCI-H460 lung.
For assay [6], the system named is NCI-H522 lung.
In assay [7] the test system is OVCAR-3 ovarian.
For assay [8], the system named is OVCAR-5 ovarian.
In assay [9] the test system is SF-268 CNS.

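Briefly, cells in 96-well plates were exposed to five compound concentrations for 48 h, and endpoints were estimated by linear interpolation. GI50: concentration for 50% inhibition of growth. Definition used: TGI = concentration required for complete inhibition of growth.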 Bounds are passed on as bounds.

With `O=C(/C=C(\[O-])c1ccccc1)CCCCCCC(=O)/C=C(\[O-])c1ccccc1.O=C(/C=C(\[O-])c1ccccc1)CCCCCCC(=O)/C=C(\[O-])c1ccccc1.O=C(/C=C(\[O-])c1ccccc1)CCCCCCC(=O)/C=C(\[O-])c1ccccc1.[Nd+3].[Nd+3]`, the GI50 in assay [1], in assay [2], in assay [3], in assay [4], in [5] and in assay [6] was more than 50 µM in each case. The GI50 in [7], in assay [8] and in assay [9] was more than 50 µM each time. Besides, the TGI in [1], in [2], in [3], in assay [4], in assay [5] and in [6] was more than 50 µM each time. In addition, the TGI in [7], in assay [8] and in assay [9] was more than 50 µM in each case.

In the case of `COc1ccc(-c2cc(-c3ccco3)c(C#N)c(=O)[nH]2)cc1`, the TGI in assay [1] is more than 100 µM; in [2], more than 100 µM; in [3], more than 100 µM; in assay [4] it was more than 100 µM; in assay [5], more than 100 µM; in [6], 54 µM. Moreover, the TGI in [7] was 53.8 µM; in assay [8], more than 100 µM; in [9], more than 100 µM.

Turning to `Cc1nc(-n2nc(-c3ccccc3)cc2-c2ccccc2)sc1C(=O)/C=C/c1ccccc1`, the TGI in assay [1], in assay [2], in [3], in assay [4], in [5] and in [6] was more than 100 µM in each case. The TGI in assay [7], in assay [8] and in assay [9] was more than 100 µM each time.

As for `O=C1CNN=C(Cn2nc(-c3ccccc3)c3ccccc3c2=O)N1`, the TGI in assay [1], in assay [3], in assay [4], in assay [5], in assay [6] and in assay [7] was more than 100 µM throughout. For the same compound, the TGI in assay [8] and in assay [9] was more than 100 µM in each case.

As to `COc1ccc(C(=O)O/N=C2/CCCCC2CN(C)C)cc1` (configuration not stated), the TGI in assay [1], in assay [2], in assay [3], in assay [4], in [5] and in [6] was more than 100 µM in each case. Besides, the TGI in assay [7] and in [8] was more than 100 µM in each case.

Consider `[Cl-].[Gd+3].[O-]/N=C(\c1ccccc1)c1ccccn1.[O-]/N=C(\c1ccccc1)c1ccccn1.[O-]/N=C(\c1ccccc1)c1ccccn1`, for which the GI50 is 55.2 µM in [1]; 42.7 µM in assay [2]; 48.4 µM in [3]; 65 µM in [4]; 50.7 µM in assay [5]; 40.4 µM in assay [6]. The GI50 in assay [7] was 21.3 µM; in [8] it was 67.7 µM; in [9], 55.6 µM. Moreover, the TGI in [1], in [2], in assay [3], in assay [4], in assay [5] and in assay [6] was more than 100 µM in each case. Besides, the TGI in assay [7] is 79.5 µM; in assay [8], more than 100 µM; in assay [9], more than 100 µM.

Turning to `CN(C)c1ccc(O[Si](Oc2ccc(N(C)C)cc2)(Oc2ccc(N(C)C)cc2)Oc2ccc(N(C)C)cc2)cc1`, the TGI in assay [1], in [2], in [4], in assay [6], in assay [7] and in [8] was more than 100 µM in each case. This compound came in with a TGI in [9] of more than 100 µM.

For the compound `COC(=O)c1sc(=NC(=S)N2CCCCC2)sc1C(=O)OC`, the TGI was more than 100 µM in [3]; more than 100 µM in [4]; more than 100 µM in assay [5]; 34.2 µM in assay [7]; more than 100 µM in [9].

`Nc1ccc(C(=O)/C=C/c2ccccc2O)cc1`: the TGI in assay [1], in assay [2], in [3], in assay [4], in assay [5] and in assay [6] was more than 100 µM throughout. Further, the TGI in [7], in assay [8] and in [9] was more than 100 µM throughout.

As for `COc1ccc2c(c1)[n+](=O)c(C(C)=O)c(C)n2[O-]`, the TGI in [1], in assay [2], in assay [3], in [4], in [5] and in assay [6] was more than 100 µM throughout. Also, the TGI in assay [7], in assay [8] and in [9] was more than 100 µM in each case.

As to `NNC(=O)N/N=C1\CN(c2ccc(Cl)cc2Cl)C(=O)C(=O)C1c1nc2ccccc2o1` (configuration not stated), the TGI in [1], in assay [2], in assay [4], in assay [5], in assay [6] and in assay [7] was more than 100 µM in each case. Besides, the TGI in assay [8] and in assay [9] was more than 100 µM in each case.

In the case of `O=c1[nH]c2ccc([N+](=O)[O-])c(Cl)c2c2ccccc12`, the TGI in assay [1] is more than 100 µM; in [2], 19.9 µM; in assay [3] it was more than 100 µM; in assay [4], more than 100 µM; in assay [5], 4.47 µM; in assay [6] it was 11.7 µM. Also, the TGI in assay [7] was 17.6 µM; in assay [8] it was 35.4 µM; in assay [9], 10.6 µM.

`CCOc1ccccc1NC(=O)C1=C(C)NC(C)=C(C(=O)Nc2ccccc2OCC)C1c1ccc([N+](=O)[O-])cc1`: the TGI in [1], in [2], in [3], in assay [5], in [6] and in [7] was more than 100 µM throughout. In addition, the TGI in [8] and in assay [9] was more than 100 µM throughout.

On to `Nc1nc(=S)[nH]c(C(=O)Nc2nccs2)c1-c1ccccc1`, for which the TGI in assay [1], in assay [2], in [3], in assay [4], in assay [5] and in [6] was more than 100 µM each time. Moreover, the TGI in [7], in [8] and in assay [9] was more than 100 µM throughout.

As for `CCCCCCCCCCCCCCC(C)CCC(=O)O` (configuration not stated), the TGI in [1], in [2], in [5], in [7], in assay [8] and in assay [9] was more than 100 µM throughout.

Take `COCC1N=C(c2cc(OC)c(OC)c(OC)c2-c2cc3c(cc2[C@H](C)O)OCO3)O[C@H]1c1ccccc1` (some centres not stated): the TGI in assay [1] is more than 100 µM; in [2] it was more than 100 µM; in assay [3] it was more than 100 µM; in assay [4], more than 10 µM; in [7], more than 100 µM.

`O=C(CC1=Nc2nnc(-c3nnc4n3C(=O)C(CC(=O)C3CC3)=N4)n2C1=O)C1CC1`: the TGI in assay [1], in assay [3], in assay [4], in assay [5], in [6] and in [7] was more than 100 µM each time. Also, the TGI in [8] and in assay [9] was more than 100 µM in each case.

Consider `c1ccc2c3c([nH]c2c1)C1C2CCCCN2C(c2ccncc2)N1CC3` (configuration not stated), for which the TGI in [1], in assay [2], in [3], in assay [4], in assay [5] and in [6] was more than 100 µM in each case. In addition, the TGI in assay [7] and in [8] was more than 100 µM throughout.

As to `Clc1ccc2c(NCCCN3CCN(c4nc(N5CCOCC5)nc5ccccc45)CC3)ccnc2c1`, the GI50 was 0.402 µM in assay [4]; 1.91 µM in assay [5]; 1.97 µM in assay [6]; 2.15 µM in assay [7]; 2.5 µM in assay [8]; 2.21 µM in assay [9]. The TGI was 3.75 µM in assay [4]; 3.84 µM in assay [5]; 3.73 µM in [6]; 4.77 µM in assay [7]; 6.34 µM in assay [8]; 5.51 µM in [9].

Regarding `CC(=O)[O-].[Mn+3].[O-]c1ccc(Cl)cc1C=NCCN=Cc1cc(Cl)ccc1[O-]`, the GI50 in [1] is more than 100 µM; in [3] it was more than 100 µM; in [4] it was more than 100 µM; in assay [5] it was more than 100 µM; in [6] it was more than 100 µM; in assay [7] it was 37.6 µM. Moreover, the GI50 in assay [9] was more than 100 µM. Further, the TGI in assay [1], in assay [3], in assay [4], in assay [5], in assay [6] and in assay [7] was more than 100 µM throughout. The TGI in assay [9] was more than 100 µM.
